Tested on: primary human mesenchymal stem cells (hMSCs)
Assay: Induction of chondrogenesis in primary human mesenchymal stem cells (hMSCs), nodule imaging with Rhodamine B / Nile Red
Format: cell-based
Conditions: for Emax: hMSCs chondrogenesis, TGF-β3 (10 ng/mL) as positive control, read-out: Max. Activity as % TGF-β3 activity; for EC50: hMSCs, concentration required to induce 50% levels of chondrogenesis vs TGF-β3 positive control, read-out: Conc (nM) of 50% TGF-β3 activity
Procedure: Representative compounds were screened using primary human mesenchymal stem cells (hMSCs) to determine their ability to induce chondrogenesis (process by which cartilage is developed).
Human Mesenchymal Stem Cell Culture: Primary human mesenchymal stem cells (hMSCs) were purchased from Lonza (Walkersville, Md.) and expanded in Mesenchymal Stem Cell Growth Media (Lonza). Cells between passage 3 and 6 were used for the experiments.
Compound Screening: Each compound was dissolved in DMSO as a 10 mM stock and used to prepare compound source plates. For the 96 well assay, serial dilution (1:3, 6-point dose-response curves from 2700 nM to 10 nM) and compound transfer was performed using the ECHO 550 (Labcyte, Sunnyvale, Calif.) into 96-well clear bottom assay plates (Greiner Bio-One) with appropriate DMSO backfill for a final DMSO concentration of 0.03%. hMSCs were plated at 20,000 cells/well in 250 μL/well Incomplete Chondrogenic Induction Medium (Lonza; DMEM, dexamethasone, ascorbate, insulin-transferrin-selenium [ITS supplement], gentamycin-amphotericin [GA-1000], sodium pyruvate, proline and L-glutamine). TGF-β3 (10 ng/mL) was used as a positive control for differentiation while negative control wells were treated with 75 nL DMSO for normalization and calculating EC50 values. For the 384 well assay, serial dilution (1:3, 8-point dose-response curves from 5000 nM to 2.2 nM) and compound transfer was performed using the ECHO 550 (Labcyte, Sunnyvale, Calif.) into 384-well clear bottom assay plates (Greiner Bio-One) with appropriate DMSO backfill for a final DMSO concentration of 0.03%. hMSCs were plated at 8,000 cells/well in 80 μL/well Incomplete Chondrogenic Induction Medium (Lonza; DMEM, dexamethasone, ascorbate, insulin-transferrin-selenium [ITS supplement], gentamycin-amphotericin [GA-1000], sodium pyruvate, proline and L-glutamine). TGF-β3 (10 ng/mL) was used as a positive control for differentiation while negative control wells were treated with 25 nL DMSO for normalization and calculating EC50 values. Cells were incubated at 37° C. and 5% CO2 for 6 days. To image chondrogenic nodules, the cells were fixed using 4% formaldehyde (Electron Microscopy Sciences), and stained with 2 μg/mL Rhodamine B (Sigma-Aldrich) and 20 μM Nile Red (Sigma-Aldrich) [Johnson K., et.al, A Stem Cell-Based Approach to Cartilage Repair, Science, (2012), 336(6082). 717-721]. The nodules imaged (25 images per well for 96 well plates and 9 images per well for 384 well plates at 10× magnification) by excitation at 531 nm and emission at 625 nm and quantified using the CellInsight CX5 (Thermo Scientific). Area of nodules in each well was normalized to the average of 3 DMSO treated wells on the same plate using Excel (Microsoft Inc.). The normalized averages (fold change over DMSO) of 2 or 3 replicate wells for each compound concentration were calculated. Due to solubility limitations of some of the compounds, curve fitting was incomplete leading to inaccurate EC50 determinations.
Using TGF-β3 as a positive control, the concentration of representative compounds required to induce 50% levels of chondrogenesis is reported. In addition, the maximum activity of each compound and the respective dose that each compound reached maximum chondrogenesis activity is reported.

Row | Compound | EC50 [nM] | Emax [%]
1 | NC1CN(c2cncc(-c3ccc4[nH]nc(-c5nc6c(-c7cccc(F)c7)cncc6[nH]5)c4n3)n2)C1 [Compound 482, 1-(6-(3-(7-(3-Fluorophenyl)-3H-imidazo[4,5-c]pyridin-2-yl)-1H-pyrazolo[4,3-b]pyridin-5-yl)pyrazin-2-yl)azetidin-3-amine] | 7 | 56
2 | Fc1cccc(-c2cncc3[nH]c(-c4n[nH]c5ccc(-c6cncc(OC7CCNCC7)c6)nc45)nc23)c1 [Compound 484, 3-(7-(3-Fluorophenyl)-3H-imidazo[4,5-c]pyridin-2-yl)-5-(5-(piperidin-4-yloxy)pyridin-3-yl)-1H-pyrazolo[4,3-b]pyridine] | 7 | 82
3 | COc1cccc(-c2cncc3[nH]c(-c4n[nH]c5ccc(-c6cccnc6)nc45)nc23)c1 [Compound 949, 3-(7-(3-Methoxylphenyl)-3H-imidazo[4,5-c]pyridin-2-yl)-5-(pyridin-3-yl)-1H-pyrazolo[4,3-b]pyridine] | 30 | 59
4 | Cc1ncc(-c2ccc3[nH]nc(-c4nc5c(-c6cccc(F)c6)cncc5[nH]4)c3n2)s1 [Compound 1081, 5-(3-(7-(3-Fluorophenyl)-3H-imidazo[4,5-c]pyridin-2-yl)-1H-pyrazolo[4,3-b]pyridin-5-yl)-2-methylthiazole] | 7 | 81
5 | Cc1cnc(-c2ccc3[nH]nc(-c4nc5c(-c6cccc(F)c6)cncc5[nH]4)c3n2)s1 [Compound 1082, 2-(3-(7-(3-Fluorophenyl)-3H-imidazo[4,5-c]pyridin-2-yl)-1H-pyrazolo[4,3-b]pyridin-5-yl)-5-methylthiazole] |  | 45

More lines, main results first:

Row | EC50 [nM] | Compound | Emax [%]
6 | 21 | Oc1cncc(-c2ccc3[nH]nc(-c4nc5c(-c6cccc(F)c6)cncc5[nH]4)c3n2)c1 [Compound 489, 5-(3-(7-(3-Fluorophenyl)-3H-imidazo[4,5-c]pyridin-2-yl)-1H-pyrazolo[4,3-b]pyridin-5-yl)pyridin-3-ol] | 54
7 | 2 | Fc1cccc(-c2cncc3[nH]c(-c4n[nH]c5ccc(-c6cnccn6)nc45)nc23)c1 [Compound 492, 3-(7-(3-Fluorophenyl)-3H-imidazo[4,5-c]pyridin-2-yl)-5-(pyrazin-2-yl)-1H-pyrazolo[4,3-b]pyridine] | 67
8 | 21 | CN(C)CC(=O)Nc1cncc(-c2ccc3[nH]nc(-c4nc5c(-c6cccc(F)c6)cncc5[nH]4)c3n2)c1 [Compound 925, 2-(Dimethylamino)-N-(5-(3-(7-(3-fluorophenyl)-3H-imidazo[4,5-c]pyridin-2-yl)-1H-pyrazolo[4,3-b]pyridin-5-yl)pyridin-3-yl)acetamide] | 52
9 | 10 | COc1cccc(-c2cncc3[nH]c(-c4n[nH]c5ccc(-c6cncc(NC(=O)C7CCCCC7)c6)nc45)nc23)c1 [Compound 967, N-(5-(3-(7-(3-Methoxylphenyl)-3H-imidazo[4,5-c]pyridin-2-yl)-1H-pyrazolo[4,3-b]pyridin-5-yl)pyridin-3-yl)cyclohexanecarboxamide] | 80
